Active and inactive are the calls of the source. No cut-off for these calls is given here.
Assays:
Influenza A virus [1] = type: functional, organism-based; conditions: A/Duck/Guangdong/212/2004(H5N1), A549
[2] = Cytotoxicity against human A549 cells assessed as reduction in cell viability by MTT assay; type: cell-based
Influenza A virus [3] = type: functional, organism-based; conditions: A/Duck/Guangdong/212/2004(H5N1), dose 80.0 mg/kg, time 5.0 day
in vitro = conditions: human, A549 cells
MDCK [4] = assay: (§1) Cytotoxicity against dog MDCK cells assessed as reduction in cell viability; type: cell-based, Canis lupus familiaris; conditions: mdck
[5] = as §1; type: cell-based, Canis lupus familiaris; conditions: MDCK cells
H5N1 subtype = assay: Antiviral activity against Influenza A virus (A/Thailand/Kan353/2004(H5N1)) infected in MDCK cells assessed as inhibition of viral entry; type: functional, organism-based
[6] = system: Influenza A virus (A/Viet Nam/1203/2004(H5N1)); assay: (§2) Binding affinity to Influenza A virus (A/Viet Nam/1203/2004(H5N1)) hemagglutin by surface plasmon resonance assay
[7] = as §2
Influenza A virus [8] = type: functional, organism-based; conditions: A/Duck/Guangdong/212/2004(H5N1), dose mg/kg 40-160, time 5.0 day
[9] = system: Vesicular stomatitis virus; assay: Antiviral activity against VSV-G enveloped pseudovirus infected in MDCK cells assessed as inhibition of viral entry at 1 to 100 uM; type: functional, organism-based; conditions: dose microM 1-100
Influenza A virus [10] = type: functional, organism-based; conditions: A/Duck/Guangdong/212/2004(H5N1), A549, dose 25.0 µM
MDCK [11] = assay: Cytotoxicity against dog MDCK cells assessed as reduction in cell viability at 0.78125 to 200 uM; type: cell-based, Canis lupus familiaris; conditions: dose 0.78125-200 µM
[12] = system: Influenza A virus (A/Thailand/Kan353/2004(H5N1)); assay: Inhibition of Influenza A virus (A/Thailand/Kan353/2004(H5N1)) neuraminidase N1 at 5 to 20 microM by fluorescence method; conditions: dose microM 5-20
Erythrocyte = assay: Inhibition of Hemagglutinin in Influenza A virus (H5N1) assessed as reduction in virus-induced agglutination of chicken erythrocytes by hemagglutination assay; type: cell-based; conditions: dose microM 5-160

SMILES	IC50 (Influenza A virus [1]) [µM]	CC50 [2] [µM]	selectivity ratio (in vitro)	also measured
NC(=O)c1ncn([C@@H]2O[C@H](CO)[C@@H](O)[C@H]2O)n1 [RIBAVIRIN]	47.2	130	2.7	Activity (Influenza A virus [3]): Active
C[C@H]1[C@H](C)CC[C@]2(C(=O)O)CC[C@]3(C)C(=CC[C@@H]4[C@@]5(C)CC[C@@H](O[C@@H]6O[C@H](CO)[C@@H](O[C@@H]7O[C@@H](C)[C@H](O)[C@@H](O)[C@H]7O)[C@H](O)[C@H]6O[C@@H]6O[C@@H](C)[C@H](O)[C@@H](O)[C@H]6O)C(C)(C)[C@@H]5CC[C@]43C)[C@H]12	48.7	283	5.8	–
COC(=O)[C@]12CC[C@@H](C)[C@H](C)[C@H]1C1=CC[C@@H]3[C@@]4(C)CC[C@@H](O[C@@H]5O[C@H](CO)[C@@H](O[C@@H]6O[C@@H](C)[C@H](O)[C@@H](O)[C@H]6O)[C@H](O)[C@H]5O[C@@H]5O[C@@H](C)[C@H](O)[C@@H](O)[C@H]5O)C(C)(C)[C@@H]4CC[C@@]3(C)[C@]1(C)CC2	16.4	363	22.1	Activity (MDCK [4]): Non-Toxic
C[C@H]1[C@H](C)CC[C@]2(C(=O)OC3CCCC3)CC[C@]3(C)C(=CC[C@@H]4[C@@]5(C)CC[C@@H](O[C@@H]6O[C@H](CO)[C@@H](O[C@@H]7O[C@@H](C)[C@H](O)[C@@H](O)[C@H]7O)[C@H](O)[C@H]6O[C@@H]6O[C@@H](C)[C@H](O)[C@@H](O)[C@H]6O)C(C)(C)[C@@H]5CC[C@]43C)[C@H]12	40.5	524	12.9	–
C[C@H]1[C@H](C)CC[C@]2(C(=O)NCc3ccccc3)CC[C@]3(C)C(=CC[C@@H]4[C@@]5(C)CC[C@@H](O[C@@H]6O[C@H](CO)[C@@H](O[C@@H]7O[C@@H](C)[C@H](O)[C@@H](O)[C@H]7O)[C@H](O)[C@H]6O[C@@H]6O[C@@H](C)[C@H](O)[C@@H](O)[C@H]6O)C(C)(C)[C@@H]5CC[C@]43C)[C@H]12	> 50	–	–	–
CCOC(=O)[C@]12CC[C@@H](C)[C@H](C)[C@H]1C1=CC[C@@H]3[C@@]4(C)CC[C@@H](O[C@@H]5O[C@H](CO)[C@@H](O[C@@H]6O[C@@H](C)[C@H](O)[C@@H](O)[C@H]6O)[C@H](O)[C@H]5O[C@@H]5O[C@@H](C)[C@H](O)[C@@H](O)[C@H]5O)C(C)(C)[C@@H]4CC[C@@]3(C)[C@]1(C)CC2	18.1	375	20.7	–
C[C@H]1[C@H](C)CC[C@]2(C(=O)N(C)C)CC[C@]3(C)C(=CC[C@@H]4[C@@]5(C)CC[C@H](O[C@@H]6O[C@H](CO)[C@@H](O[C@@H]7O[C@@H](C)[C@H](O)[C@@H](O)[C@H]7O)[C@H](O)[C@H]6O[C@@H]6O[C@@H](C)[C@H](O)[C@@H](O)[C@H]6O)C(C)(C)[C@@H]5CC[C@]43C)[C@H]12	–	–	–	CC50 [5]: 47 µM
C[C@H]1[C@H](C)CC[C@]2(C(=O)Nc3ccccc3)CC[C@]3(C)C(=CC[C@@H]4[C@@]5(C)CC[C@@H](O[C@@H]6O[C@H](CO)[C@@H](O[C@@H]7O[C@@H](C)[C@H](O)[C@@H](O)[C@H]7O)[C@H](O)[C@H]6O[C@@H]6O[C@@H](C)[C@H](O)[C@@H](O)[C@H]6O)C(C)(C)[C@@H]5CC[C@]43C)[C@H]12	33.8	> 1000	> 29.6	–
CNC(=O)[C@]12CC[C@@H](C)[C@H](C)[C@H]1C1=CC[C@@H]3[C@@]4(C)CC[C@@H](O[C@@H]5O[C@H](CO)[C@@H](O[C@@H]6O[C@@H](C)[C@H](O)[C@@H](O)[C@H]6O)[C@H](O)[C@H]5O[C@@H]5O[C@@H](C)[C@H](O)[C@@H](O)[C@H]5O)C(C)(C)[C@@H]4CC[C@@]3(C)[C@]1(C)CC2	12.2	> 1000	> 81.7	–
C[C@H]1[C@H](C)CC[C@]2(C(=O)OCc3ccccc3)CC[C@]3(C)C(=CC[C@@H]4[C@@]5(C)CC[C@@H](O[C@@H]6O[C@H](CO)[C@@H](O[C@@H]7O[C@@H](C)[C@H](O)[C@@H](O)[C@H]7O)[C@H](O)[C@H]6O[C@@H]6O[C@@H](C)[C@H](O)[C@@H](O)[C@H]6O)C(C)(C)[C@@H]5CC[C@]43C)[C@H]12	> 50	–	–	–
C[C@H]1[C@H](C)CC[C@]2(C(=O)N(C)C)CC[C@]3(C)C(=CC[C@@H]4[C@@]5(C)CC[C@@H](O[C@@H]6O[C@H](CO)[C@@H](O[C@@H]7O[C@@H](C)[C@H](O)[C@@H](O)[C@H]7O)[C@H](O)[C@H]6O[C@@H]6O[C@@H](C)[C@H](O)[C@@H](O)[C@H]6O)C(C)(C)[C@@H]5CC[C@]43C)[C@H]12	8.42	> 1000	> 119	IC50 (H5N1 subtype): 6.29 µM; Activity [6]: Dose-dependent effect; Kd [7]: 0.00164 µM; Activity (Influenza A virus [8]): Dose-dependent effect; Activity [9]: inactive; Activity (Influenza A virus [10]): Active; Activity (MDCK [11]): Non-Toxic; inhibition [12]: inactive; inhibition (Erythrocyte): Dose-dependent effect
C[C@H]1[C@H](C)CC[C@]2(C(=O)NC3CCCC3)CC[C@]3(C)C(=CC[C@@H]4[C@@]5(C)CC[C@@H](O[C@@H]6O[C@H](CO)[C@@H](O[C@@H]7O[C@@H](C)[C@H](O)[C@@H](O)[C@H]7O)[C@H](O)[C@H]6O[C@@H]6O[C@@H](C)[C@H](O)[C@@H](O)[C@H]6O)C(C)(C)[C@@H]5CC[C@]43C)[C@H]12	18.5	> 1000	> 54.1	–
CCCCCOC(=O)[C@]12CC[C@@H](C)[C@H](C)[C@H]1C1=CC[C@@H]3[C@@]4(C)CC[C@@H](O[C@@H]5O[C@H](CO)[C@@H](O[C@@H]6O[C@@H](C)[C@H](O)[C@@H](O)[C@H]6O)[C@H](O)[C@H]5O[C@@H]5O[C@@H](C)[C@H](O)[C@@H](O)[C@H]5O)C(C)(C)[C@@H]4CC[C@@]3(C)[C@]1(C)CC2	29.3	489	16.7	–
